Measurements taken from patent publication US11180809B2, “Biological markers for identifying patients for treatment with abiraterone acetate” (JANSSEN PHARMACEUTICA NV, priority 2014, dated 2021).

How the values were obtained:
[1] = tested on: metastatic castration-resistant prostate cancer (mCRPC); assay: COU-AA-302 Phase 3 study: Cox regression association of tumor mRNA biomarker expression with rPFS/OS within the AA group; format: in vivo, human
Text: (§1) COU-AA-302 is a Phase 3, multinational, randomized, double-blind, placebo-controlled study comparing the efficacy and safety of AA and prednisone (AA+P) to placebo and prednisone (Placebo+P) in medically or surgically castrated asymptomatic or mildly symptomatic men with mCRPC who have not received cytotoxic chemotherapy. Patients were assigned in a 1:1 ratio to receive either AA+P or Placebo+P and were stratified based on ECOG performance status of 0 or 1, as discussed in Clinical Study Protocol: A Phase 3 Randomized, Double-blind, Placebo-controlled Study of Abiraterone Acetate (CB7630) Plus Prednisone in Asymptomatic or Mildly Symptomatic Subjects with Metastatic Castration Resistant Prostate Cancer. Protocol COU-AA-302; EudraCT No. 2008-008004-41; 9 Jul. 2012.
(§2) All subjects in Study COU-AA-302, regardless of treatment group, received concurrent prednisone. See Clinical Study Report: CSR COU-AA-302 2012. A Phase 3, Randomized, Double-Blind, Placebo-Controlled Study of Abiraterone Acetate Plus Prednisone in Asymptomatic or Mildly Symptomatic Subjects With Metastatic Castration-Resistant Prostate Cancer. Issue Date: 26 Oct. 2012. Subjects who received AA+P are referred to herein as the “AA group” and in tables as “AA.” Subjects who received Placebo+P are referred to herein as the “Placebo group” and in tables as “Placebo.” Additional study related details can be obtained from the COU-AA-302 clinical study protocol or clinical study report.
Formalin fixed paraffin embedded (FFPE) tumor samples from 258 subjects who optionally consented for RNA analysis were collected and shipped to the central laboratory (Covance, Ind.) for RNA analysis. FFPE samples from 152 subjects had sufficient RNA for TaqMan® Low Density Array (TLDA) analysis. Samples from the other 106 subjects were excluded either due to lack of tumor or low RNA yield. Of the 152 samples evaluated by TLDA, samples from 42 subjects were excluded from data analysis due to technical failures (no detectable gene expression or batch effects induced by microdissection of samples with low tumor content or low RNA input mass [<250 ng of total RNA]). The remaining evaluable samples from 110 subjects (Biomarker population) who were part of the ITT population (10%) and who had drug exposure with clinical data for at least one of the efficacy endpoints (rPFS, OS) were included in the analysis. Samples from these subjects were included in the mRNA analysis using the TaqMan® array microfluidic cards.
Raw CT values were filtered to remove values greater than 30. Quadruple replicate CT values were summarized using the geometric mean. Expression values were calculated using the comparative CT method as described in Schmittgen T D, Livak K J. Analyzing real-time PCR data by the comparative Ct method. Nature Protocols. 2008; 3:1101-1108. Briefly, a normalization factor was calculated for each sample using the geometric mean of housekeeping genes (ACTB and GAPDH). Relative expression values of all other transcripts were quantified as the difference between CT and the normalization factor. Transcript expression was calculated by the negation of the relative expression values to account for the inverse relationship between expression and CT. This is equivalent to the log 2 transform of 2^(-DeltaCT).
All statistical tests were interpreted at 5% significance levels (two-sided). For determination of specificity of biomarker association with clinical endpoints in AA group, a P<0.05 in the AA group and a P≥0.2 in the placebo group is required. Demographics and baseline characteristics were compared between the biomarker population and the ITT population using ANOVA (continuous variables) or Chi-Square (categorical variables) tests. […]

[2] = tested on: metastatic castration-resistant prostate cancer (mCRPC); assay: COU-AA-302: multivariate biomarker panel classifier (low/high risk) versus radiographic progression free survival, independent test set; format: in vivo, human; details: test set (AA group), multivariate panel cutpoint 0.9977
Text: as §1, §2
A multivariate biomarker panel was identified using penalized regression to define a classifier that predicts radiographic progression free survival. The model was defined using an elastic net approach for feature selection and model specification. Data was separated into training and testing sets using a 70%-30% split. Within the training data, 10-fold cross-validation was used to define model parameters. Elastic net models have two parameters: alpha and lambda. Alpha is the elastic net penalty and determines the specific mixture of penalties that will be applied to limit complexity of the model. Lambda is the regularization penalty which determines the magnitude of the parameter used to limit complexity. After optimizing alpha and lambda using cross-validation, the values were used to define the cox regression model on the training data. The model is used to predict the relative risk of progression free-survival for all subjects in the training set. Then, time-dependent ROC analysis was used to determine the predictive power of the model and dichotomize the relative risk into two groups associated with low and high risk at the timepoint at which 90% of subjects with radiographic progression had observed recurrence of disease (t=20.48 months). This model, consisting of regression coefficients, timepoint and cutoff to discriminate between low and high risk, was applied to predict the relative risk of subjects in the independent test data and evaluate the predictive power and association with time to event of the classifier. This evaluation is repeated on the placebo data to confirm that the classifier is predictive of response to Abiraterone and not prognostic of outcome independent of treatment. Features used in the model building process included all single gene markers detected in greater than 50% of samples to exclude low expressing genes. The model was optimized to alpha=0.5 and lambda=0.209. Using these parameters, the optimized survival models were defined as described in Table 6.
Table 7 lists the predictive metrics which describe the performance of these models on the independent test and placebo group data.
Table 8 lists the statistics describing the association between classifier predictions and time to radiographic progression free survival.

[3] = AA group (AA+prednisone), Cox regression with baseline ECOG, continuous log2 expression, (95% CI)
[4] = AA group, Cox regression with baseline ECOG, (95% CI)
[5] = AA group, multivariate Cox regression model

`CC(=O)O[C@H]1CC[C@@]2(C)C(=CC[C@@H]3[C@@H]2CC[C@]2(C)C(c4cccnc4)=CC[C@@H]32)C1` [AA, abiraterone acetate] was tested, and the “HR, association of ANLN expression with rPFS (IND)” value [1, 3] was 0.84 (0.72, 0.96), the “HR, association of ANLN expression with rPFS (INV)” value [1, 3] was 0.80 (0.69, 0.93) and the “reduction of the hazard of rPFS event per unit increase in relative expression of ANLN” value ([1]; AA group, 1-0.84, unit = 2-fold difference relative to reference gene) was 16%. For the same compound, the “HR, association of CYP17A1 and cofactors group composite score with OS” value ([1]; AA group, Cox regression) was 0.20, the “HR, association of androgen controlled group composite score with OS” value ([1]; AA group, Cox regression) was 0.31 and the “HR, association of proliferation pathway module with rPFS (INV)” value ([1]; AA group, Cox regression) was 0.63. The “HR, association of CYP17A1 and cofactors group composite score with rPFS (INV)” value [1, 4] was 0.71 (0.37, 1.36), the “HR, association of HSD17B10 expression with rPFS (IND)” value [1, 4] was 0.78 (0.62, 0.98) and the “HR, association of HSD17B10 expression with rPFS (INV)” value [1, 4] was 0.76 (0.62, 0.94). The “HR, association of NUSAP1 expression with rPFS (IND)” value [1, 4] was 0.82 (0.67, 1.00), the “HR, association of NUSAP1 expression with rPFS (INV)” value [1, 4] was 0.78 (0.64, 0.95) and the “HR, association of SRD5A1 expression with rPFS (IND)” value [1, 4] was 0.80 (0.65, 0.98). The “HR, association of SRD5A1 expression with rPFS (INV)” value [1, 4] was 0.83 (0.68, 1.00), the “HR, association of UBE2C expression with rPFS (IND)” value [1, 4] was 0.85 (0.74, 0.98) and the “HR, association of UBE2C expression with rPFS (INV)” value [1, 4] was 0.81 (0.71, 0.93). The “HR, association of ANLN expression with rPFS (IND), corrected for RNA extraction methodology” value [1, 5] was 0.86, the “HR, association of HSD17B10 expression with rPFS (IND), corrected for RNA extraction methodology” value [1, 5] was 0.78 and the “HR, association of NUSAP1 expression with rPFS (IND), corrected for RNA extraction methodology” value [1, 5] was 0.78. For the same compound, the “HR, association of SRD5A1 expression with rPFS (IND), corrected for RNA extraction methodology” value [1, 5] was 0.79, the “HR, association of UBE2C expression with rPFS (IND), corrected for RNA extraction methodology” value ([1]; AA group, multivariate Cox regression model, trend of association) was 0.88 and the “HR, High versus Low risk, time to radiographic progression free survival” value ([2]; 95CI in next cell) was 6.25. The “Median time to radiographic progression free survival, High risk” value ([2]; 95CI in next cell) was 8.2, the “Event/Total (Perc), rPFS, High risk” value ([2]; percentage of events) was “(100.0)” and the “Event/Total (Perc), rPFS, Low risk” value ([2]; percentage of events) was “(40.0)”. For the same compound, the “Event/Total, rPFS, High risk” value ([2]; timepoint 20.4813) was 4/4 and the “Event/Total, rPFS, Low risk” value ([2]; timepoint 20.4813) was 6/15.
